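Protocol summary: plate cells (96-well), add compound at 5 concentrations, incubate 48 h, interpolate endpoints linearly. GI50 marks 50% less growth. TGI denotes the concentration required for complete inhibition of growth.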 Where a SMILES comes first, the peptide text is derived from it. [ ]: non-standard residue; d: D form. The star is where a group is joined. ξ: configuration not given here. ξF = NC(Cc1ccccc1)C(=O)O; Cbz = O=C(OCc1ccccc1)*; Aib = CC(C)(N)C(=O)O
Key:
Assay in all cases: NCI anticancer screen, dose series, 48 h
BT-549 breast = test system: BT-549 breast
SR leukemia = test system: SR leukemia
HCT-116 colon = test system: HCT-116 colon
DU-145 prostate = test system: DU-145 prostate
A549 NSCLC = test system: A549 NSCLC
HOP-92 NSCLC = test system: HOP-92 NSCLC
RPMI-8226 leukemia = test system: RPMI-8226 leukemia
MDA-MB-435 = test system: MDA-MB-435
HOP-62 NSCLC = test system: HOP-62 NSCLC
EKVX NSCLC = test system: EKVX NSCLC

| Structure (SMILES) | TGI (BT-549 breast) [µM] | TGI (SR leukemia) [µM] | TGI (HCT-116 colon) [µM] | TGI (DU-145 prostate) [µM] | TGI (A549 NSCLC) [µM] | TGI (HOP-92 NSCLC) [µM] | TGI (RPMI-8226 leukemia) [µM] | TGI (MDA-MB-435) [µM] | GI50 (SR leukemia) [µM] | GI50 (DU-145 prostate) [µM] | GI50 (HOP-92 NSCLC) [µM] | TGI (HOP-62 NSCLC) [µM] | TGI (EKVX NSCLC) [µM] | GI50 (BT-549 breast) [µM] | GI50 (HOP-62 NSCLC) [µM] | GI50 (HCT-116 colon) [µM] | GI50 (A549 NSCLC) [µM] | GI50 (RPMI-8226 leukemia) [µM] | GI50 (MDA-MB-435) [µM] | GI50 (EKVX NSCLC) [µM] |
| --- | --- | --- | --- | --- | --- | --- | --- | --- | --- | --- | --- | --- | --- | --- | --- | --- | --- | --- | --- | --- |
| Nc1nc2ccc(OCC(O)CN3CCCCC3)cc2[n+]([O-])n1 (centres undefined) | > 100 | > 100 | > 100 | > 100 | > 100 | > 100 | > 100 | > 100 |  |  |  |  |  |  |  |  |  |  |  |  |
| N=C(N)c1ccc(-c2ccc(-c3cccs3)s2)s1 |  | 0.895 |  | 2.97 |  | 2.6 |  |  | 0.302 | 1.52 | 1.06 |  |  |  |  |  |  |  |  |  |
| CCOC(=O)CCC(NC(=O)OCc1ccccc1)C(=O)NC(CCC(=O)OCC)C(=O)NNC(=O)OC(C)(C)C (centres undefined) | > 100 | > 100 | > 100 | > 100 |  | > 100 | > 100 | > 100 |  |  |  | > 100 |  |  |  |  |  |  |  |  |
| c1cncc(O[Si](Oc2cccnc2)(Oc2cccnc2)Oc2cccnc2)c1 |  | > 100 |  |  | > 100 |  |  |  |  |  |  |  | > 100 |  |  |  |  |  |  |  |
| Nc1c(-c2ccccc2[N+](=O)[O-])nc2ccccn12 |  | > 100 | > 100 |  |  | > 100 | > 100 |  |  |  |  | > 100 | > 100 |  |  |  |  |  |  |  |
| COc1cc(Nc2nnc3n2S(=O)(=O)c2cc(C)c(Cl)cc2S3)cc(OC)c1 | 22.1 |  | > 100 | 44.2 | 30 | 27 | 95.7 | > 100 |  |  |  | 26.7 | > 100 |  |  |  |  |  |  |  |
| Cc1ccc(N2CCN(CCC(=O)O)CC2)cc1 | > 100 | > 100 | > 100 | > 100 | > 100 | > 100 | > 100 | > 100 |  |  |  | > 100 | > 100 |  |  |  |  |  |  |  |
| NCCSCc1ccccc1Cl | > 100 | 55.7 | > 100 | > 100 | > 100 | > 100 |  | > 100 |  |  |  | > 100 | > 100 |  |  |  |  |  |  |  |
| CCOc1ccc(N=NS(=O)(=O)O)cc1 | > 100 | > 100 | > 100 | > 100 | > 100 | > 100 | > 100 | > 100 |  |  |  | > 100 | > 100 |  |  |  |  |  |  |  |
| CC(=O)ON1C(=O)c2cccc3cccc(c23)C1=O | 74.5 |  | 41.7 | 40.2 | > 100 | > 100 | 53.4 | 39.8 |  |  |  | 85.4 | > 100 |  |  |  |  |  |  |  |
| COC(=O)C(C)(C)NC(=O)C(Cc1ccccc1)NC(=O)C(C)(C)NC(=O)OCc1ccccc1 (centres undefined) (Cbz-[Aib]-[ξF]-[Aib]-OMe) |  |  | > 100 | > 100 | > 100 |  | > 100 | > 100 |  |  |  | > 100 | > 100 |  |  |  |  |  |  |  |
| C(=N\OCCc1ccccc1)/c1cccnc1 | > 100 |  | > 100 | > 100 | > 100 | > 100 | > 100 | > 100 |  |  |  | > 100 | > 100 |  |  |  |  |  |  |  |
| COc1cc(-c2n/c(=C\c3c(O)[nH]c4cc(Cl)ccc34)cc3c2=Nc2ccccc2-3)cc(OC)c1OC | 5.12 | 6.35 | 13.7 | 7.52 | 21.9 |  | > 100 | 51.3 | 2.38 | 2.57 |  | 5.73 | 27.1 | 2.25 | 2.64 | 3.48 | 4.8 | 67.1 | 6.39 | 4.99 |
| Clc1ccc(-c2ccc(-c3nnc(COc4ccc(OCc5nnc(-c6ccc(-c7ccc(Cl)cc7Cl)o6)o5)c(Cl)c4)o3)o2)c(Cl)c1 | > 100 | 74.8 | > 100 | > 100 | > 100 |  | > 100 | > 100 |  |  |  | > 100 | > 100 |  |  |  |  |  |  |  |
| C[CH2][Ge]([CH2]C)([CH2]C)[O]C(=O)CCC(=O)[O][Ge]([CH2]C)([CH2]C)[CH2]C |  | > 100 | > 100 |  | > 100 | > 100 | > 100 |  | 40.3 |  | 16.2 | > 100 | > 100 |  | > 100 | 57.3 | 68.5 | 0.249 |  | 20.5 |
| NC(=O)/C=c1/c2ccccc2n2nc3ccccc3c12 | 95.9 | 6.16 | 21 | > 100 | > 100 |  | 29.1 | 35.1 |  |  |  | 77.2 | 42.7 |  |  |  |  |  |  |  |

Reference: PubChem BioAssay (NCI)
